Our source for the IC50 values is BindingDB's records for doi:10.1016/j.bmc.2009.03.061 (Gsk, 2009).

Test [1] has as its target cAMP-specific 3',5'-cyclic phosphodiesterase 4B (Homo sapiens, UniProt Q07343). The test is described as follows: Enzyme Inhibition Assay. Particulars: pH 7.5; 23 °C. As to the method:
(§1) Inhibition of PDE4 is measured using a luminescence-coupled assay system developed by Cambrex. This assay system couples the formation of AMP, derived from PDE4-catalyzyed hydrolysis of cAMP, to the formation of ATP. The ATP is then used as a substrate for Luciferase and results in light as a signal output. […] This assay is used in a quenched assay format, where PDE4 enzyme and cAMP substrate are added sequentially to a 384 well assay plate (Greiner784075) pre-stamped with compound at the desired concentration. The reaction is incubated at room temperature for 1 h, and then is quenched by the addition of enzyme stop solution and then the light signal is generated by the addition of detection reagent. […] For inhibition curves, compounds were diluted using a 3-fold serial dilution and tested at 11 concentrations. Curves were analysed as describe above using ActivityBase and XLfit , and results were expressed as pIC50 values.

Test [2] deals with cAMP-specific 3',5'-cyclic phosphodiesterase 4D (Homo sapiens, UniProt Q08499). The test is described as follows: Enzyme Inhibition Assay. Particulars: pH 7.5; 23 °C. As to the method:
as §1

pIC50: −log10 of the molar value.

Sequence of cAMP-specific 3',5'-cyclic phosphodiesterase 4D (Q08499 whole entry): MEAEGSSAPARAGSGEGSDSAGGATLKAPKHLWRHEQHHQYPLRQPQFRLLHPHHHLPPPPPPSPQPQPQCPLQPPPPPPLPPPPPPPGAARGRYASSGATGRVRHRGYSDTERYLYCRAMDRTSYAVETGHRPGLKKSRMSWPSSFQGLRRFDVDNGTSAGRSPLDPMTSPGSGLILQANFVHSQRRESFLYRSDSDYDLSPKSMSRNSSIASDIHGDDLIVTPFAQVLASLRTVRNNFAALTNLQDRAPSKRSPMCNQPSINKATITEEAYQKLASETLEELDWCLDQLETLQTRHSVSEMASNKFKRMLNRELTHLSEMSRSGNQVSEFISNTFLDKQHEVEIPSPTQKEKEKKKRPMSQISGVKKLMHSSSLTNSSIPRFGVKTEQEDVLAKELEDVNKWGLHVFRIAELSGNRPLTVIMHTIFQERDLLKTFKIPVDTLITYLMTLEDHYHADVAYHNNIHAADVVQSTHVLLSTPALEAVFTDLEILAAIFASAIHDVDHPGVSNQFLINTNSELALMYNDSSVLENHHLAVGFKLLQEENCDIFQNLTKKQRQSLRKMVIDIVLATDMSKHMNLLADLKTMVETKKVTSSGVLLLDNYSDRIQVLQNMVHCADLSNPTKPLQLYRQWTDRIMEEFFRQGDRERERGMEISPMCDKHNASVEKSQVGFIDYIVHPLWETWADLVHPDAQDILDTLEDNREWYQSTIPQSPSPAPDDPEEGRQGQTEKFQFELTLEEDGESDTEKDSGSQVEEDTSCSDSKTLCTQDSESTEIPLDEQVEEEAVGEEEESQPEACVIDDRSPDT
Sequence of cAMP-specific 3',5'-cyclic phosphodiesterase 4B (Q07343 whole entry): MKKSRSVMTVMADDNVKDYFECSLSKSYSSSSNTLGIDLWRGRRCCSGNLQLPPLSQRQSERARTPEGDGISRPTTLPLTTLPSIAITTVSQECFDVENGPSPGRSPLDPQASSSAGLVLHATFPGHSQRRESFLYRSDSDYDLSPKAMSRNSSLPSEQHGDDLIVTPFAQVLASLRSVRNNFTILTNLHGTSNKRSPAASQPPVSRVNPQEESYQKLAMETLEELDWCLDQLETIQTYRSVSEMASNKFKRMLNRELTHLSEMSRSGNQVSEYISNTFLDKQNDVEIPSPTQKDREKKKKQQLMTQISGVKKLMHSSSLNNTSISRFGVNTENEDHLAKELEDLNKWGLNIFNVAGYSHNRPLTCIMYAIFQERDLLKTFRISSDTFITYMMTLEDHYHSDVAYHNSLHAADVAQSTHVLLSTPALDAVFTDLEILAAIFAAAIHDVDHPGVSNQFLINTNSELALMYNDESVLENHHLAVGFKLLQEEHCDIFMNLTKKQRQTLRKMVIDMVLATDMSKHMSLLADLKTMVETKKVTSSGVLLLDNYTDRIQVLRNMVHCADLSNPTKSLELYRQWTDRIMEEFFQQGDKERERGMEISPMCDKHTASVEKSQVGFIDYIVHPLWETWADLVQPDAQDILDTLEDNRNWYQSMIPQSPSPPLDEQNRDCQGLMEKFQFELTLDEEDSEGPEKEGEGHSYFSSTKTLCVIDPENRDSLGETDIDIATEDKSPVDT

With `Cc1cccc(C)c1C(=O)C1CCCc2sc(NC(=O)c3ccccc3[N+](=O)[O-])c(C(N)=O)c21` (centres undefined) [tetrahydrobenzothiophene (THBT), 18], the pIC50 in test [1] is 5.30; in test [2], 5.60.
With `CCCC1CCc2c(sc(NC(=O)c3ccccc3[N+](=O)[O-])c2C(N)=O)C1` (centres undefined) [tetrahydrobenzothiophene (THBT), 24], the pIC50 was 7.00 in test [1] and 5.60 in test [2].
